How the values were obtained:
mushroom tyrosinase = experiment: Tyrosinase inhibitory activity (L-DOPA, DOPA chrome at 475 nm); type: biochemical; conditions: for tyrosinase inhibitory activity: Example 1, FIG. 1; for Inhibitory Activity (%): Example 2, Table 2
Description: In the reaction mixture, 0.5 ml of 0.175 M sodium phosphate buffer (pH 6.8), 0.2 ml of a substrate solution containing 10 mM L-DOPA, and 0.1 ml of the sample solution were mixed, followed by the addition of 0.2 ml of mushroom tyrosinase (110 unit/ml). The reaction was carried out for 2 minutes at 25° C., and the DOPA chrome produced in the reaction mixture was measured at 475 nm. Tyrosinase inhibitory activity was expressed as the percentage reduction in absorbance compared to the control group without sample solution.

MNT-1 cells [1] = experiment: Melanin production in MNT-1 cells (absorbance 490 nm); type: cell-based, human; conditions: MNT-1, 72 hours
Description: The melanin inhibitory effects of each substance were confirmed through an analysis of melanin production following treatment with procyanidin A2, quercetin, and their combination. Specifically, MNT-1 cells (human-derived melanoma skin cells) were treated for 72 hours with procyanidin A2, quercetin, and the combination at the maximum concentration without cytotoxicity according to Table 5. The negative control group was untreated, and arbutin, a tyrosinase inhibitor, was used as the positive control. Afterward, the media was removed, the cell bodies were dissolved with 1 N NaOH, heated at 95° C. for 5 minutes, and the absorbance was measured at 490 nm using a microplate reader (Molecular Devices, Sunnyvale, CA, USA).

[2] = test system: tyrosinase, TRP-1, TRP-2, MITF in MNT-1 cells; experiment: Melanin synthesis-related protein expression (western blot); type: cell-based, human; conditions: MNT-1, FIG. 5
Description: (§1) Specifically, after treating with procyanidin A2, quercetin, and the combination, MNT-1 cells were washed twice in ice-cold PBS and lysed in ice-cold RIPA buffer (Sigma-Aldrich). Protein concentration was measured using a Bicinchoninic acid (BCA) protein assay kit (Pierce, Rockford, IL, USA), and 35 μg of protein was separated using sodium dodecyl sulfate-polyacrylamide gel electrophoresis (10%) and transferred to a nitrocellulose membrane (Whatman, Dassel, Germany). The membrane was blocked in 5% non-fat milk in TBST buffer (1:5000) and then treated with primary (1:1000) and secondary antibodies (Table 6). Protein bands were detected using SuperSignal West Femto maximum sensitivity substrate (Thermo Fisher Scientific, Rockford, IL, USA) and quantified using Image Lab™ software (version 5.2.1).

MNT-1 cells [3] = experiment: Cell viability / cytotoxicity, MTT assay; type: cell-based, human; conditions: MNT-1, 72 hours
Description: To examine the cell toxicity of procyanidin A2, quercetin, and their combination, a cell viability analysis was conducted. Specifically, cell survival and cytotoxicity were measured using the 3-(4,5-dimethylthiazol-2-yl)-2,5-diphenyltetrazoliumbromide (MTT) Assay. MNT-1 cells were seeded in a 96 well plate at 1×10^5 cells/well and cultured for 24 hours in a 37° C., 5% CO2 incubator. After that, each compound was treated according to Table 4 and cultured for 72 hours. Then, MTT solution at a final concentration of 0.5 mg/ml was added and reacted for 4 hours at 37° C. The media containing MTT solution was removed, and 100 μl of DMSO was treated in each well to dissolve the formazan precipitate formed in reaction with the living cells. Absorbance was measured at 550 nm using an ELISA reader (CLARIOstar Plus, BMG LABTECH, Germany).

[4] = test system: LC3-II, ATG5, Beclin-1, p62, LC3-I in MNT-1 cells; experiment: Autophagy activity-related protein expression (western blot); type: cell-based, human; conditions: for expression levels of LC3-II, ATG5, and Beclin-1: MNT-1, FIG. 6
Description: as §1
LC3-II, ATG5, and Beclin-1 are involved in the formation of autophagosomes and activate autophagy. In contrast, p62 and LC3-I, which show characteristics of being decomposed during autophagosome formation, decrease when autophagy activate. To verify the autophagy activity of procyanidin A2, quercetin, and their combination, the expression levels of autophagy-activity-related proteins were analyzed. The specific method for this experiment, except for using Table 8 for antibodies, was conducted in the same manner as the method in Example 5 for the analysis of melanin synthesis-related protein expression.

[5] = procyanidin A2 only, 50 μM, MNT-1

| Structure (SMILES) | tyrosinase inhibition (mushroom tyrosinase; 300 μM, positive control, Example 1) [%] | melanin production reduced by (NT set to 100%) (MNT-1 cells [1]; arbutin 1 mM) | tyrosinase inhibitory activity (mushroom tyrosinase; 2.5 μM) [%] | Inhibitory Activity (%) (mushroom tyrosinase; 2.5 μM) | tyrosinase inhibitory activity (mushroom tyrosinase; 5 μM) [%] | Inhibitory Activity (%) (mushroom tyrosinase; 5 μM) | tyrosinase inhibitory activity (mushroom tyrosinase; 10 μM) [%] | protein expression of tyrosinase, TRP-1, and TRP-2 ([2]; 50 μM) | cytotoxicity (MNT-1 cells [3]; 100 μM) | cytotoxicity (MNT-1 cells [3]; concentrations below 50 μM) | melanin production reduced to (NT set to 100%) (MNT-1 cells [1]; 50 μM) [%] | expression levels of LC3-II, ATG5, and Beclin-1 ([4]; 50 μM) | ATG5 and Beclin-1 expression [4, 5] | P62 expression [4, 5] | ratio of LC3-II to LC3-I [4, 5] | protein expression of tyrosinase, TRP-1, and TRP-2 ([2]; 20 μM) | cytotoxicity (MNT-1 cells [3]; approximately 25 μM and below) | melanin production reduced to (NT set to 100%) (MNT-1 cells [1]; 20 μM) [%] | expression levels of LC3-II, ATG5, and Beclin-1 ([4]; 20 μM) |
| --- | --- | --- | --- | --- | --- | --- | --- | --- | --- | --- | --- | --- | --- | --- | --- | --- | --- | --- | --- |
| OC[C@H]1O[C@@H](Oc2ccc(O)cc2)[C@H](O)[C@@H](O)[C@@H]1O [arbutin, reference compound] | 58.79 | about 57.1% | – | – | – | – | – | – | – | – | – | – | – | – | – | – | – | – | – |
| Oc1cc(O)c2c(c1)O[C@@]1(c3ccc(O)c(O)c3)Oc3cc(O)c4c(c3[C@@H]2[C@H]1O)O[C@H](c1ccc(O)c(O)c1)[C@H](O)C4 [procyanidin A2] | – | – | 29.82 | 30.27 | 51.12 | 49.04 | 68.81 | reduction | toxicity | no cytotoxicity | 72.3 | little to no significant change or only slight increases | slight increase | slight increase | remained similar to the control group | – | – | – | – |
| O=c1c(O)c(-c2ccc(O)c(O)c2)oc2cc(O)cc(O)c12 [quercetin, 2-(3,4-dihydroxyphenyl)-3,5,7-trihydroxy-4H-chromen-4-one] | – | – | 17.65 | 17.05 | 32.08 | 31.61 | 49.44 | – | – | – | – | – | – | – | – | reduction | no cytotoxicity | 64.5 | little to no significant change or only slight increases |
